Experimental data from PubChem BioAssay AID1963860 (Molecular Pharmacology Branch, DTP, NCI, 2024).

Test system: CN0375-F725-PDC KRAS spheroid viability
Experiment: Anticancer human tumor CN0375-F725-PDC patient-derived colon carcinoma cell line growth inhibition [KRAS2]
Conditions: spheroids with HUVEC and MSC; for IC50: curve of first compound; for viability, T/C: stronger effect = lower value
Summary of the method: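 Combination screen of spheroid viability in tumor-cell co-cultures with endothelial (HUVEC) and mesenchymal stem cell stroma. Each agent was tested in half-log dilutions, topping at clinical Cmax or at 10 microM without a known Cmax.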

[1] = second compound 0.1 µM, first compound 0.0316 µM
[2] = second compound 0.1 µM, first compound 0.1 µM
[3] = second compound 0.1 µM, first compound 0.316 µM
[4] = second compound 0.1 µM, first compound 1 µM
[5] = second compound 0.1 µM, first compound 3.16 µM
[6] = second compound 0.1 µM, first compound 10 µM
[7] = second compound 0.316 µM, first compound 0.0316 µM
[8] = second compound 0.316 µM, first compound 0.1 µM
[9] = second compound 0.316 µM, first compound 0.316 µM
[10] = second compound 0.316 µM, first compound 1 µM
[11] = second compound 0.316 µM, first compound 3.16 µM
[12] = second compound 0.316 µM, first compound 10 µM
[13] = second compound 1 µM, first compound 0.0316 µM
[14] = second compound 1 µM, first compound 0.1 µM
[15] = second compound 1 µM, first compound 0.316 µM
[16] = second compound 1 µM, first compound 1 µM
[17] = second compound 1 µM, first compound 3.16 µM
[18] = second compound 1 µM, first compound 10 µM
[19] = second compound 3.16 µM, first compound 0.0316 µM
[20] = second compound 3.16 µM, first compound 0.1 µM
[21] = second compound 3.16 µM, first compound 0.316 µM
[22] = second compound 3.16 µM, first compound 1 µM
[23] = second compound 3.16 µM, first compound 3.16 µM
[24] = second compound 3.16 µM, first compound 10 µM
[25] = second compound 10 µM, first compound 0.0316 µM
[26] = second compound 10 µM, first compound 0.1 µM
[27] = second compound 10 µM, first compound 0.316 µM
[28] = second compound 10 µM, first compound 1 µM
[29] = second compound 10 µM, first compound 3.16 µM
[30] = second compound 10 µM, first compound 10 µM
[31] = second compound 0.1 µM, first compound 0.01 µM
[32] = second compound 0.316 µM, first compound 0.01 µM
[33] = second compound 1 µM, first compound 0.01 µM
[34] = second compound 3.16 µM, first compound 0.01 µM
[35] = second compound 10 µM, first compound 0.01 µM
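Also: spheroids exposed to agents for 7 days.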

CC(C)NCC(C(=O)N1CCN(c2ncnc3c2C(C)CC3O)CC1)c1ccc(Cl)cc1 (stereo not given) + CNCc1ccccc1-c1csc(C(C)Nc2nc(C)nc3cc(OC)c(OC)cc23)c1
IC50 (second compound 0.1 µM): > 10000 nM | IC50 (second compound 0.316 µM): > 10000 nM | IC50 (second compound 1 µM): 370 nM | IC50 (second compound 3.16 µM): < 31.6 nM | IC50 (second compound 10 µM): < 31.6 nM | viability, T/C [1]: 107% | viability, T/C [2]: 103% | viability, T/C [3]: 93.1% | viability, T/C [4]: 82.6% | viability, T/C [5]: 89.5% | viability, T/C [6]: 78.7% | viability, T/C [7]: 99.4% | viability, T/C [8]: 98.2% | viability, T/C [9]: 88.5% | viability, T/C [10]: 85.2% | viability, T/C [11]: 80% | viability, T/C [12]: 61.8% | viability, T/C [13]: 56.6% | viability, T/C [14]: 57.2% | viability, T/C [15]: 48.4% | viability, T/C [16]: 45.2% | viability, T/C [17]: 30.1% | viability, T/C [18]: 16% | viability, T/C [19]: 0.23% | viability, T/C [20]: 0.3% | viability, T/C [21]: 0.25% | viability, T/C [22]: 0.28% | viability, T/C [23]: 0.31% | viability, T/C [24]: 0.32% | viability, T/C [25]: 0.14% | viability, T/C [26]: 0.14% | viability, T/C [27]: 0.16% | viability, T/C [28]: 0.14% | viability, T/C [29]: 0.13% | viability, T/C [30]: 0.2%

CC1COCCN1c1cc(-c2ccnn2C)c2ccnc(-c3ccn[nH]3)c2n1 (stereo not given) + CNCc1ccccc1-c1csc(C(C)Nc2nc(C)nc3cc(OC)c(OC)cc23)c1
IC50 (second compound 0.1 µM): > 3160 nM | IC50 (second compound 0.316 µM): 3100 nM | IC50 (second compound 1 µM): 127 nM | IC50 (second compound 3.16 µM): < 10 nM | IC50 (second compound 10 µM): < 10 nM | viability, T/C [31]: 97.8% | viability, T/C [1]: 88.5% | viability, T/C [2]: 80.7% | viability, T/C [3]: 76.2% | viability, T/C [4]: 68% | viability, T/C [5]: 52.1% | viability, T/C [32]: 92% | viability, T/C [7]: 89.7% | viability, T/C [8]: 74.1% | viability, T/C [9]: 70% | viability, T/C [10]: 59.4% | viability, T/C [11]: 49.5% | viability, T/C [33]: 63.5% | viability, T/C [13]: 64.3% | viability, T/C [14]: 44.1% | viability, T/C [15]: 45.1% | viability, T/C [16]: 39% | viability, T/C [17]: 23.5% | viability, T/C [34]: 0.32% | viability, T/C [19]: 0.28% | viability, T/C [20]: 0.36% | viability, T/C [21]: 0.41% | viability, T/C [22]: 0.44% | viability, T/C [23]: 0.54% | viability, T/C [35]: 0.45% | viability, T/C [25]: 0.24% | viability, T/C [26]: 0.19% | viability, T/C [27]: 0.24% | viability, T/C [28]: 0.24% | viability, T/C [29]: 0.21%

CCN1CCN(Cc2ccc(Nc3ncc(F)c(-c4cc(F)c5nc(C)n(C(C)C)c5c4)n3)nc2)CC1 + CNCc1ccccc1-c1csc(C(C)Nc2nc(C)nc3cc(OC)c(OC)cc23)c1
IC50 (second compound 0.1 µM): > 1000 nM | IC50 (second compound 0.316 µM): > 1000 nM | IC50 (second compound 1 µM): 32.8 nM | IC50 (second compound 3.16 µM): < 3.16 nM | IC50 (second compound 10 µM): < 3.16 nM | viability, T/C (second compound 0.1 µM, first compound 0.00316 µM): 102% | viability, T/C [31]: 91.5% | viability, T/C [1]: 92.4% | viability, T/C [2]: 89.1% | viability, T/C [3]: 102% | viability, T/C [4]: 86.9% | viability, T/C (second compound 0.316 µM, first compound 0.00316 µM): 92.6% | viability, T/C [32]: 88.8% | viability, T/C [7]: 78.7% | viability, T/C [8]: 79.1% | viability, T/C [9]: 81.7% | viability, T/C [10]: 58.9% | viability, T/C (second compound 1 µM, first compound 0.00316 µM): 76% | viability, T/C [33]: 65.7% | viability, T/C [13]: 40.5% | viability, T/C [14]: 51.9% | viability, T/C [15]: 9.53% | viability, T/C [16]: 10.2% | viability, T/C (second compound 3.16 µM, first compound 0.00316 µM): 0.86% | viability, T/C [34]: 0.97% | viability, T/C [19]: 0.25% | viability, T/C [20]: 0.28% | viability, T/C [21]: 0.37% | viability, T/C [22]: 0.51% | viability, T/C (second compound 10 µM, first compound 0.00316 µM): 0.33% | viability, T/C [35]: 0.19% | viability, T/C [25]: 0.51% | viability, T/C [26]: 0.3% | viability, T/C [27]: 0.17% | viability, T/C [28]: 0.4%

CCNC(=O)CC1N=C(c2ccc(Cl)cc2)c2cc(OC)ccc2-n2c(C)nnc21 (stereo not given) + CNCc1ccccc1-c1csc(C(C)Nc2nc(C)nc3cc(OC)c(OC)cc23)c1
IC50 (second compound 0.1 µM): > 10000 nM | IC50 (second compound 0.316 µM): 6770 nM | IC50 (second compound 1 µM): 1480 nM | IC50 (second compound 3.16 µM): < 31.6 nM | IC50 (second compound 10 µM): < 31.6 nM | viability, T/C [1]: 103% | viability, T/C [2]: 89% | viability, T/C [3]: 76.2% | viability, T/C [4]: 75.2% | viability, T/C [5]: 67.3% | viability, T/C [6]: 50.9% | viability, T/C [7]: 92.5% | viability, T/C [8]: 85.2% | viability, T/C [9]: 77% | viability, T/C [10]: 67.7% | viability, T/C [11]: 58.4% | viability, T/C [12]: 45.6% | viability, T/C [13]: 57.8% | viability, T/C [14]: 65.7% | viability, T/C [15]: 63.7% | viability, T/C [16]: 52.7% | viability, T/C [17]: 40.9% | viability, T/C [18]: 20.7% | viability, T/C [19]: 0.58% | viability, T/C [20]: 0.33% | viability, T/C [21]: 0.36% | viability, T/C [22]: 0.35% | viability, T/C [23]: 0.39% | viability, T/C [24]: 0.46% | viability, T/C [25]: 0.3% | viability, T/C [26]: 0.29% | viability, T/C [27]: 0.46% | viability, T/C [28]: 0.31% | viability, T/C [29]: 0.71% | viability, T/C [30]: 0.4%
